Assay results published in PubChem BioAssay (NCI).
Several values for one entry are separate records, joined by “and”; a condition that tells them apart may be missing. Equal entries are not always repeated.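 Following 48 hours of exposure in 96-well plates, responses at five concentrations were used to interpolate endpoints linearly. GI50: concentration for 50% inhibition of growth. TGI denotes the concentration required for complete inhibition of growth.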

Experiments:
Experiment in all cases: NCI-60 cell line screen, 48 h
NCI-H23 lung = test system: NCI-H23 lung
NCI-H460 lung = test system: NCI-H460 lung
HOP-92 NSCLC = test system: HOP-92 NSCLC
K-562 leukemia = test system: K-562 leukemia
HCC-2998 colon = test system: HCC-2998 colon
PC-3 prostate = test system: PC-3 prostate
RXF 393 renal = test system: RXF 393 renal
A498 renal = test system: A498 renal
TK-10 renal = test system: TK-10 renal
OVCAR-3 ovarian = test system: OVCAR-3 ovarian
UACC-257 melanoma = test system: UACC-257 melanoma
CAKI-1 renal = test system: CAKI-1 renal
MDA-MB-231 breast = test system: MDA-MB-231 breast

SMILES | TGI (NCI-H23 lung) | TGI (NCI-H460 lung) | TGI (HOP-92 NSCLC) | TGI (K-562 leukemia) | TGI (HCC-2998 colon) | TGI (PC-3 prostate) | TGI (RXF 393 renal) | TGI (A498 renal) | TGI (TK-10 renal) | TGI (OVCAR-3 ovarian) | TGI (UACC-257 melanoma) | TGI (CAKI-1 renal) | TGI (MDA-MB-231 breast) | GI50 (NCI-H23 lung) | GI50 (NCI-H460 lung) | GI50 (HOP-92 NSCLC) | GI50 (RXF 393 renal) | GI50 (A498 renal) | GI50 (OVCAR-3 ovarian)
C=C(C)C1CC2=C(O1)C(=O)c1cccc(O)c1C2=O (stereo not given) | 0.935 µM | 3.75 µM | 11.5 µM | 0.689 µM | 3.97 µM | 3.67 µM | 2.54 µM | 10.2 µM | 5.37 µM | 0.924 µM | 1.01 µM | 2.08 µM | 3.64 µM | – | – | – | – | – | –
COc1ccc2c(c1)OC1c3ccccc3OCC21 (stereo not given) | > 100 µM | > 100 µM | > 100 µM | > 100 µM | > 100 µM | > 100 µM | > 100 µM | > 100 µM | > 100 µM | > 100 µM | > 100 µM | > 100 µM | > 100 µM | – | – | – | – | – | –
COc1ccc(/C=C2/SC(c3c(O)ccc4ccccc34)N(NC(=O)CCCCCCCCC(=O)NN3C(=O)/C(=C\c4ccc(OC)c(OC)c4)SC3c3c(O)ccc4ccccc34)C2=O)cc1OC (stereo not given) | > 75 µM | > 100 µM | 23.3 µM | 17 µM | > 100 µM | > 100 µM | > 79.7 µM | 49.3 µM | > 100 µM | > 58.5 µM | > 28.5 µM | > 100 µM | > 91.7 µM | – | – | – | – | – | –
COc1cc(C(=O)N(C(=S)OC23CC4CC(CC(C4)C2)C3)c2ccccc2)cc(OC)c1OC | > 100 µM | > 100 µM | > 100 µM | > 100 µM | 61.4 µM | > 100 µM | > 100 µM | 92.5 µM | > 100 µM | > 100 µM | > 100 µM | > 100 µM | > 100 µM | – | – | – | – | – | –
O=C1CSC(c2cccc(Oc3ccccc3)c2)N1c1cccc(Cl)c1Cl (stereo not given) | 91.4 µM | 71.5 µM | 45.8 µM | 63.9 µM | 26.2 µM | 95.3 µM | > 100 µM | 93.5 µM | > 100 µM | > 100 µM | 61.5 µM | > 100 µM | > 100 µM | – | – | – | – | – | –
O=P(O)(O)CC1OC(CO)C(O)C1O (stereo not given) | > 100 µM | > 100 µM | > 100 µM | > 100 µM | > 100 µM | > 100 µM | > 100 µM | > 100 µM | > 100 µM | > 100 µM | > 100 µM | > 100 µM | > 100 µM | – | – | – | – | – | –
COc1ccc(-c2nc(SC)n(C3OC(COC(C)=O)C(OC(C)=O)C(OC(C)=O)C3OC(C)=O)c(=O)c2C#N)cc1 (stereo not given) | > 100 µM | > 100 µM | 52.9 µM and > 100 µM | > 100 µM | > 100 µM | > 100 µM | 35.4 µM and > 100 µM | 44.5 µM and > 100 µM | > 100 µM | > 100 µM | > 100 µM | > 100 µM | > 100 µM | 35.7 µM and > 100 µM | 80.4 µM and 14.4 µM | 14.1 µM and 39.2 µM | 16.5 µM and > 100 µM | 8.43 µM and 44.1 µM | 38.2 µM and > 100 µM
CCOC(=O)/C=C(/C(=O)OCC)n1ccc(=O)n(CC(=O)OCC)c1=O | 3.77 µM | 15.1 µM | 1.46 µM | 1.62 µM | 5.04 µM | 3.22 µM | 2.52 µM | 28 µM | 2.52 µM | 2.44 µM | 7.72 µM | 0.32 µM | 4.41 µM | – | – | – | – | – | –
